{"source": "patent US9980927B2", "about": "“Use of tapentadol for inhibiting and/or treating depression and anxiety” (Gruenenthal GmbH, priority 2011, dated 2018)", "test_system": "patients with inadequately managed, severe chronic low back pain with or without a neuropathic pain component", "assay": "Hospital Anxiety and Depression Scale (HADS) depression score; open-label phase IIIb trial, tapentadol prolonged release 50-250 mg bid for up to 12 weeks", "type": "in vivo, human patients", "details": "for HADS depression score, course: Baseline to Week 12", "protocol": "As used herein, the “depression score” is a value determining the degree of the depression. The scale of depression scores covers the range from 0 to 21, wherein the degree of the depression is high in case of high values and low in case of low values. In a group of tested subjects, typically the mean or mediate values of depression scores are determined. The mean value is the sum of all depression scores divided by the number of subjects. The mediate value is the middle depression score in the set of determined scores. Preferably, the “depression score” is defined as in the experimental section.\nA subgroup suffering from neuropathic pain due to lumbar radiculopathy was also investigated.\nThis was a multicenter, multinational, open-label, effectiveness phase IIIb trial to evaluate effectiveness and safety of tapentadol prolonged release treatment in patients with inadequately managed, severe chronic low back pain with or without a neuropathic pain component. Patients taking WHO Step II analgesics discontinued those analgesics before starting study medication; patients taking Step I analgesics and/or centrally acting co-analgesics continued on the same dose. […] All patients received tapentadol prolonged release (50-250 mg bid) for up to 12 weeks (5-week titration period and a 7-week maintenance period). Tapentadol immediate release (IR) 50 mg (twice a day, hours apart) was permitted (combined total daily dose of tapentadol prolonged release and tapentadol IR, 500 mg/day). The primary efficacy endpoint was the change from Baseline to Week 6 (when tapentadol prolonged release doses were stable) in average pain intensity on the 11-point NRS-3 using the last observation carried forward (LOCF) for imputing missing scores. The painDETECT questionnaire was used to evaluate the likelihood of a neuropathic pain component of low back pain; patients were classified as painDETECT “negative,” “unclear,” or “positive.” The population of patients classified as painDETECT negative was limited to approximately 30% of the total population.\nIn the painDETECT positive trial population the “diagnosis of lumbar radiculopathy” was evaluated which was defined per study protocol according following criteria: • typical dermatomal pain (radiating beyond the knee towards the foot, pain evoked by stretching within distribution of the ischiadic/femoral nerve) • signs of root dysfunction: • such as sensory impairment, motor symptoms from compression of lumbar nerve root (L4, L5, S1). • and/or absent or diminished quadriceps femoris or triceps surae reflexes. • and/or quantitative sensory testing (QST) deficit and pain distribution present in the same dermatomal area.\nAll subjects completed Short Form-36 (SF-36) and EuroQol-5 Dimension (EQ-5D) questionnaires and the Hospital Anxiety and Depression Scale (HADS). The Patient Global Impression of Change (PGIC) and Clinical global impression of change (CGIC) were also used as secondary endpoints. For both tests, patients completed the statement, “since I began trial treatment, I would rate my overall condition as,” using 7 possible responses (“very much worse” to “very much improved”). Adverse events were recorded throughout the trial.\nIn the following • (i) N is the number of subjects of the specified diagnosis group, • (ii) n is the number of subjects with data available, • (iii) “Mean” is the mean score of the subjects, i.e. the sum of all scores is divided by the number of subjects, • (iv) SD is the standard deviation, • (v) “Median” is the median score of the subjects, i.e. the middle score in the set of scores, • (vi) “Range” is the range of scores of the subjects, i.e. the range defined by the lowest and the highest score of the set of scores. First, the depression scores are presented. The total number of subjects in the clinical study: N=175", "key": {"[1]": {"details": "Visit 1, defined neuropathic pain N=85"}, "[2]": {"details": "Visit 1, positive diagnosis of lumbar radiculopathy-neuropathic pain subset N=44"}, "[3]": {"details": "Visit 1, presumed neuropathic pain component N=41"}, "[4]": {"details": "Visit 1, presumed or defined neuropathic pain component N=126"}, "[5]": {"details": "Visit 1, subjects with nociceptive pain N=49"}, "[6]": {"details": "Visit 5, defined neuropathic pain N=85"}, "[7]": {"details": "Visit 5, positive diagnosis of lumbar radiculopathy-neuropathic pain subset N=44"}, "[8]": {"details": "Visit 5, presumed neuropathic pain component N=41"}, "[9]": {"details": "Visit 5, presumed or defined neuropathic pain component N=126"}, "[10]": {"details": "Visit 5, subjects with nociceptive pain N=49"}, "[11]": {"details": "Visit 6, defined neuropathic pain N=85"}, "[12]": {"details": "Visit 6, positive diagnosis of lumbar radiculopathy-neuropathic pain subset N=44"}, "[13]": {"details": "Visit 6, presumed neuropathic pain component N=41"}, "[14]": {"details": "Visit 6, presumed or defined neuropathic"}, "[15]": {"details": "Visit 6, presumed or defined neuropathic pain component N=126"}, "[16]": {"details": "Visit 6, subjects with nociceptive pain N=49"}, "[17]": {"details": "Visit 7, defined neuropathic pain N=85"}, "[18]": {"details": "Visit 7, positive diagnosis of lumbar radiculopathy-neuropathic pain subset N=44"}, "[19]": {"details": "Visit 7, presumed neuropathic pain component N=41"}, "[20]": {"details": "Visit 7, presumed or defined neuropathic pain component N=126"}, "[21]": {"details": "Visit 7, subjects with nociceptive pain N=49"}, "[22]": {"details": "Visit 8, defined neuropathic pain N=85"}}, "data": [{"smiles": "CC[C@@H](c1cccc(O)c1)[C@@H](C)CN(C)C", "note": "[tapentadol, (−)-(1R,2R)-3-(3-dimethylamino-1-ethyl-2-methyl-propyl)-phenol]", "values": [{"measurement": "HADS depression score, course", "setting": "painDETECT negative", "result": "not significantly"}, {"measurement": "HADS depression score, course", "setting": "painDETECT unclear/positive, P<0.0001 at Visit 12", "result": "improved steadily"}, {"measurement": "HADS depression score, course", "setting": "positive diagnosis of lumbar radiculopathy-neuropathic pain subset, 0.0023 at Visit 12", "result": "improved steadily"}, {"measurement": "Depression score Mean (SD)", "setting": "[1]", "result": "8.3 (4.51)"}, {"measurement": "Depression score Median", "setting": "[1]", "result": 8.0}, {"measurement": "Depression score Mean (SD)", "setting": "[2]", "result": "7.5 (3.69)"}, {"measurement": "Depression score Median", "setting": "[2]", "result": 7.5}, {"measurement": "Depression score Mean (SD)", "setting": "[3]", "result": "8.8 (4.59)"}, {"measurement": "Depression score Median", "setting": "[3]", "result": 8.5}, {"measurement": "Depression score Mean (SD)", "setting": "[4]", "result": "8.5 (4.52)"}, {"measurement": "Depression score Median", "setting": "[4]", "result": 8.0}, {"measurement": "Depression score Mean (SD)", "setting": "[5]", "result": "6.1 (3.90)"}, {"measurement": "Depression score Median", "setting": "[5]", "result": 5.0}, {"measurement": "Depression score Mean (SD)", "setting": "Visit 1, total subjects N=175", "result": "7.8 (4.47)"}, {"measurement": "Depression score Median", "setting": "Visit 1, total subjects N=175", "result": 7.0}, {"measurement": "Depression score Mean (SD)", "setting": "[6]", "result": "7.3 (4.29)"}, {"measurement": "Depression score Median", "setting": "[6]", "result": 7.0}, {"measurement": "Depression score Mean (SD)", "setting": "[7]", "result": "6.7 (3.77)"}, {"measurement": "Depression score Median", "setting": "[7]", "result": 6.0}, {"measurement": "Depression score Mean (SD)", "setting": "[8]", "result": "7.5 (4.59)"}, {"measurement": "Depression score Median", "setting": "[8]", "result": 7.0}, {"measurement": "Depression score Mean (SD)", "setting": "[9]", "result": "7.4 (4.37)"}, {"measurement": "Depression score Median", "setting": "[9]", "result": 7.0}, {"measurement": "Depression score Mean (SD)", "setting": "[10]", "result": "5.6 (3.68)"}, {"measurement": "Depression score Median", "setting": "[10]", "result": 5.0}, {"measurement": "Depression score Mean (SD)", "setting": "Visit 5, total subjects N=175", "result": "6.9 (4.26)"}, {"measurement": "Depression score Median", "setting": "Visit 5, total subjects N=175", "result": 6.0}, {"measurement": "Depression score change from baseline Mean (SD)", "setting": "Visit 6", "result": "−0.4 (3.55)"}, {"measurement": "Depression score change from baseline Median", "setting": "Visit 6", "result": "−0.0"}, {"measurement": "Depression score change from baseline Mean (SD)", "setting": "Visit 6, defined neuropathic", "result": "−1.7 (3.43)"}, {"measurement": "Depression score change from baseline Median", "setting": "Visit 6, defined neuropathic", "result": "−2.0"}, {"measurement": "Depression score Mean (SD)", "setting": "[11]", "result": "6.8 (4.41)"}, {"measurement": "Depression score Median", "setting": "[11]", "result": 6.0}, {"measurement": "Depression score change from baseline Mean (SD)", "setting": "Visit 6, lumbar radiculopathy", "result": "−1.7 (3.23)"}, {"measurement": "Depression score change from baseline Median", "setting": "Visit 6, lumbar radiculopathy", "result": "−1.0"}, {"measurement": "Depression score change from baseline Mean (SD)", "setting": "Visit 6, nociceptive", "result": "−1.0 (3.15)"}, {"measurement": "Depression score change from baseline Median", "setting": "Visit 6, nociceptive", "result": "−1.0"}, {"measurement": "Depression score Mean (SD)", "setting": "[12]", "result": "6.3 (3.67)"}, {"measurement": "Depression score Median", "setting": "[12]", "result": 6.0}, {"measurement": "Depression score Mean (SD)", "setting": "[13]", "result": "7.5 (4.60)"}, {"measurement": "Depression score Median", "setting": "[13]", "result": 7.5}, {"measurement": "Depression score change from baseline Mean (SD)", "setting": "[14]", "result": "−1.3 (3.50)"}, {"measurement": "Depression score change from baseline Median", "setting": "[14]", "result": "−1.0"}, {"measurement": "Depression score Mean (SD)", "setting": "[15]", "result": "7.1 (4.46)"}, {"measurement": "Depression score Median", "setting": "[15]", "result": 7.0}, {"measurement": "Depression score Mean (SD)", "setting": "[16]", "result": "5.3 (4.03)"}, {"measurement": "Depression score Median", "setting": "[16]", "result": 4.0}, {"measurement": "Depression score change from baseline Mean (SD)", "setting": "Visit 6, total", "result": "−1.2 (3.40)"}, {"measurement": "Depression score change from baseline Median", "setting": "Visit 6, total", "result": "−1.0"}, {"measurement": "Depression score Mean (SD)", "setting": "Visit 6, total subjects N=175", "result": "6.6 (4.41)"}, {"measurement": "Depression score Median", "setting": "Visit 6, total subjects N=175", "result": 6.0}, {"measurement": "Depression score Mean (SD)", "setting": "[17]", "result": "6.2 (4.56)"}, {"measurement": "Depression score Median", "setting": "[17]", "result": 6.0}, {"measurement": "Depression score Mean (SD)", "setting": "[18]", "result": "5.4 (3.85)"}, {"measurement": "Depression score Median", "setting": "[18]", "result": 5.0}, {"measurement": "Depression score Mean (SD)", "setting": "[19]", "result": "7.0 (4.71)"}, {"measurement": "Depression score Median", "setting": "[19]", "result": 6.5}, {"measurement": "Depression score Mean (SD)", "setting": "[20]", "result": "6.5 (4.61)"}, {"measurement": "Depression score Median", "setting": "[20]", "result": 6.0}, {"measurement": "Depression score Mean (SD)", "setting": "[21]", "result": "5.0 (3.63)"}, {"measurement": "Depression score Median", "setting": "[21]", "result": 4.0}, {"measurement": "Depression score Mean (SD)", "setting": "Visit 7, total subjects N=175", "result": "6.1 (4.40)"}, {"measurement": "Depression score Median", "setting": "Visit 7, total subjects N=175", "result": 6.0}, {"measurement": "Depression score change from baseline Mean (SD)", "setting": "Visit 8", "result": "−1.0 (3.13)"}, {"measurement": "Depression score change from baseline Median", "setting": "Visit 8", "result": "−1.0"}, {"measurement": "Depression score change from baseline Mean (SD)", "setting": "Visit 8, defined neuropathic", "result": "−2.3 (3.33)"}, {"measurement": "Depression score change from baseline Median", "setting": "Visit 8, defined neuropathic", "result": "−1.5"}, {"measurement": "Depression score Mean (SD)", "setting": "[22]", "result": "6.4 (4.28)"}, {"measurement": "Depression score Median", "setting": "[22]", "result": 6.0}, {"measurement": "Depression score change from baseline Mean (SD)", "setting": "Visit 8, lumbar radiculopathy", "result": "−2.1 (3.54)"}, {"measurement": "Depression score change from baseline Median", "setting": "Visit 8, lumbar radiculopathy", "result": "−1.0"}, {"measurement": "Depression score change from baseline Mean (SD)", "setting": "Visit 8, nociceptive", "result": "−0.8 (2.31)"}, {"measurement": "Depression score change from baseline Median", "setting": "Visit 8, nociceptive", "result": "−1.0"}, {"measurement": "Depression score Mean (SD)", "setting": "Visit 8, positive diagnosis of lumbar radiculopathy-neuropathic pain subset N=44", "result": "5.8 (3.71)"}]}]}
